Measured values published in PubChem BioAssay AID1996.
Converted amounts (≈) assume the structure as drawn.

Settings: buffer; pH 7.4; 200.0 µM

Which solubility kinetic does the source give for `CCC(C)N1CCN(S(=O)(=O)c2ccc(NC(C)=O)cc2)CC1` (stereo not drawn) here?
The solubility kinetic was 46.7 µg/mL (≈ 138 µM).

For `Cc1ccc(C(=O)NS(=O)(=O)c2ccc(C)cc2)cc1`, which solubility kinetic is on record?
The solubility kinetic was > 43.4 µg/mL.

With `Cc1ccccc1OCC(=O)Nc1nc(-c2ccncc2)cs1` as the molecule, how does the solubility kinetic read?
The solubility kinetic was 4.9 µg/mL (≈ 15.1 µM).

With `COc1ccc(S(=O)(=O)c2c[nH]c(=S)[nH]c2=O)cc1Cl` as the molecule, how does the solubility kinetic read?
The solubility kinetic was > 49.9 µg/mL.

With `CCn1c(=O)c(C(=O)Nc2ccccc2F)c(O)c2ccccc21` as the molecule, how does the solubility kinetic read?
The solubility kinetic was 0.4 µg/mL (≈ 1.23 µM).

For `O=C(Nc1ccccc1Cl)NC1(C(=O)N2CCC(O)CC2)CCCCC1`, which solubility kinetic is on record?
Its solubility kinetic is > 57 µg/mL.

With `Brc1cccc2sc(N3CCCC3)nc12` as the molecule, how does the solubility kinetic read?
The solubility kinetic was 5.2 µg/mL (≈ 18.4 µM).

Which solubility kinetic does the source give for `Cc1cc(OC(=O)c2ccc(C(C)(C)C)cc2)c([N+](=O)[O-])c(=O)[nH]1` here?
Its solubility kinetic is 46.4 µg/mL (≈ 140 µM).

For `CCNC(=O)c1ccccc1-c1nc(-c2ccccc2)no1`, which solubility kinetic is on record?
Its solubility kinetic is 35.4 µg/mL (≈ 121 µM).

For `COc1ccc(S(=O)(=O)N2CCc3ccccc32)cc1C(=O)N1CCC(C)CC1`, which solubility kinetic is on record?
Its solubility kinetic is 57.8 µg/mL (≈ 139 µM).

Which solubility kinetic does the source give for `CC(C)c1ccc(NC(=O)N2C[C@H]3C[C@@H](C2)c2cccc(=O)n2C3)cc1` here?
The solubility kinetic was > 52.7 µg/mL.

For `COc1ccccc1-n1ccnc(SCC(=O)NC2CCCC2)c1=O`, which solubility kinetic is on record?
The solubility kinetic was > 53.9 µg/mL.

With `COc1ccc(NC(=O)c2cc(=O)[nH]c3ccccc23)cc1` as the molecule, how does the solubility kinetic read?
Its solubility kinetic is 2.1 µg/mL (≈ 7.14 µM).

Which solubility kinetic does the source give for `CCOC(=O)Cn1nc(C)c(NC(=O)COc2cccc(Cl)c2)c1C` here?
The solubility kinetic was > 54.9 µg/mL.

With `Cc1ccc(NC(=S)N(Cc2ccccc2)Cc2cccs2)c(C)c1` as the molecule, how does the solubility kinetic read?
The solubility kinetic was 0.8 µg/mL (≈ 2.18 µM).

For `CCOC1=CC(=O)N(Cc2ccccc2)C1`, which solubility kinetic is on record?
Its solubility kinetic is > 32.6 µg/mL.

Which solubility kinetic does the source give for `CC(C)NC(=O)Cn1cc(C(=O)c2ccccc2)c2ccccc21` here?
Its solubility kinetic is 1.7 µg/mL (≈ 5.31 µM).

With `O=C(Nc1ccccc1N1CCOCC1)C1CCCO1` (stereo not drawn) as the molecule, how does the solubility kinetic read?
The solubility kinetic was > 41.5 µg/mL.

For `CCOc1ccccc1NC(=O)c1ccc2[nH]c(C)c(C)c2c1`, which solubility kinetic is on record?
Its solubility kinetic is 2.8 µg/mL (≈ 9.08 µM).

With `CC(OC(=O)c1cccnc1)C(=O)Nc1ccc2c(c1)OCO2` (stereo not drawn) as the molecule, how does the solubility kinetic read?
Its solubility kinetic is 44 µg/mL (≈ 140 µM).

With `CC(C)Cc1csc(NC(=O)c2ccc(Br)cc2)c1C(=O)O` as the molecule, how does the solubility kinetic read?
Its solubility kinetic is 53.6 µg/mL (≈ 140 µM).

For `CCCCn1nc(C(=O)N(C)CC(=O)Nc2ccc(F)c(F)c2F)ccc1=O`, which solubility kinetic is on record?
The solubility kinetic was > 59.5 µg/mL.

For `Nc1cccc(C(=O)Nc2cccc3ncccc23)c1`, which solubility kinetic is on record?
The solubility kinetic was > 39.5 µg/mL.

For `COc1ccc(C2NC(=O)NC3=C2CCc2ccccc23)cc1` (stereo not drawn), which solubility kinetic is on record?
The solubility kinetic was 18.1 µg/mL (≈ 59.1 µM).

For `Cc1cccn2c(=O)c3cc(C(=O)NC4CCCCC4)c(=N)n(CCN4CCOCC4)c3nc12`, which solubility kinetic is on record?
The solubility kinetic was 52.2 µg/mL (≈ 112 µM).

With `CC1(C)CC(c2nc(-c3ccc([N+](=O)[O-])cc3)cs2)CCO1` (stereo not drawn) as the molecule, how does the solubility kinetic read?
Its solubility kinetic is 19.3 µg/mL (≈ 60.6 µM).

For `COc1cc(SC)ccc1C(=O)NCCN1CCOCC1`, which solubility kinetic is on record?
Its solubility kinetic is > 46.6 µg/mL.

Which solubility kinetic does the source give for `O=C(O)CCN1C(=O)c2ccc(Oc3ccc([N+](=O)[O-])cc3)cc2C1=O` here?
Its solubility kinetic is 52.9 µg/mL (≈ 148 µM).

With `CCOC(=O)c1nn(-c2ccc3c(c2)OCCO3)cc1O` as the molecule, how does the solubility kinetic read?
The solubility kinetic was > 43.5 µg/mL.

For `CC(C)(C)c1ccc(S(=O)(=O)N2CCNC(=O)C2)cc1`, which solubility kinetic is on record?
The solubility kinetic was 42 µg/mL (≈ 142 µM).

For `c1cnc(N2CCN(Cc3ccc4c(c3)OCO4)CC2)cn1`, which solubility kinetic is on record?
Its solubility kinetic is 44.5 µg/mL (≈ 149 µM).

For `O=C(O)CCCc1ccc(N(CCCl)CCCl)cc1`, which solubility kinetic is on record?
The solubility kinetic was > 45.6 µg/mL.

For `CCN(CC(=O)Nc1ccc2c(c1)OCCO2)CC(=O)Nc1ccc(C)c([N+](=O)[O-])c1`, which solubility kinetic is on record?
The solubility kinetic was 7 µg/mL (≈ 16.3 µM).

For `COc1ccc(CCNc2nc(-c3ccncc3)cs2)cc1OC`, which solubility kinetic is on record?
Its solubility kinetic is 35.9 µg/mL (≈ 105 µM).

For `Cc1nc(N(C)C)c2sc(=S)n(Cc3ccccc3)c2n1`, which solubility kinetic is on record?
Its solubility kinetic is < 0.2 µg/mL.

Which solubility kinetic does the source give for `COc1ccc2[nH]cc(CCNC(=O)c3ccc([N+](=O)[O-])cc3)c2c1` here?
The solubility kinetic was 26.3 µg/mL (≈ 77.5 µM).

With `O=C(CN1C(=O)NC(CCc2ccccc2)C1=O)Nc1cccc(Br)c1` (stereo not drawn) as the molecule, how does the solubility kinetic read?
Its solubility kinetic is 5.2 µg/mL (≈ 12.5 µM).

Which solubility kinetic does the source give for `C=CCNC(=S)N1CCC(C(=O)c2ccc(C)cc2)CC1` here?
The solubility kinetic was > 45.4 µg/mL.

For `COc1ccc(CCNC(=O)c2cc3c(C)nccc3[nH]c2=O)cc1OC`, which solubility kinetic is on record?
Its solubility kinetic is 17.1 µg/mL (≈ 46.5 µM).

For `CN1C(=O)/C(=C/C=C2\SCCN2C)OC1=S`, which solubility kinetic is on record?
The solubility kinetic was 4.4 µg/mL (≈ 17.2 µM).

Which solubility kinetic does the source give for `O=C(Nc1cc(S(=O)(=O)N2CCOCC2)ccc1N1CCOCC1)c1ccc([N+](=O)[O-])s1` here?
The solubility kinetic was 6.1 µg/mL (≈ 12.6 µM).

With `O=C(NCCCn1ccnc1)C(=O)c1c[nH]c2ccccc12` as the molecule, how does the solubility kinetic read?
Its solubility kinetic is > 44.4 µg/mL.

With `COc1ccccc1C(=O)NCCOc1ccc(C)c(C)c1` as the molecule, how does the solubility kinetic read?
Its solubility kinetic is 43 µg/mL (≈ 144 µM).

Which solubility kinetic does the source give for `COc1cccc(NC(=O)CN(C)C(C)C(=O)N2CCCC2)c1` (stereo not drawn) here?
The solubility kinetic was 44.4 µg/mL (≈ 139 µM).

For `CCNc1nc(N)c(C(=O)C23CC4CC(CC(C4)C2)C3)s1`, which solubility kinetic is on record?
The solubility kinetic was 2 µg/mL (≈ 6.55 µM).

With `Cc1ccccc1CN(C)CC(=O)Nc1c(C)cccc1C(C)C` as the molecule, how does the solubility kinetic read?
The solubility kinetic was 12.1 µg/mL (≈ 37.3 µM).

Which solubility kinetic does the source give for `CSc1ccccc1NC(=O)Nc1ccccc1Cl` here?
Its solubility kinetic is 1.7 µg/mL (≈ 5.81 µM).

Which solubility kinetic does the source give for `Cc1cccc2cc(CN(Cc3ccco3)C(=O)c3ccco3)c(=O)[nH]c12` here?
Its solubility kinetic is 0.8 µg/mL (≈ 2.21 µM).

With `Cc1cc(OCc2nc3ccccc3s2)ccc1N` as the molecule, how does the solubility kinetic read?
Its solubility kinetic is 30.6 µg/mL (≈ 113 µM).

With `Cc1ccc(C(=O)N2CCCC(C(=O)c3cc(F)ccc3F)C2)s1` (stereo not drawn) as the molecule, how does the solubility kinetic read?
Its solubility kinetic is 52.3 µg/mL (≈ 150 µM).

Which solubility kinetic does the source give for `CC(C[N+](C)(C)C)OC(N)=O.[Cl-]` (stereo not drawn) here?
The solubility kinetic was > 29.5 µg/mL.

Which solubility kinetic does the source give for `O=C(COC(=O)c1cccnc1Cl)Nc1cccc(S(=O)(=O)N2CCOCC2)c1` here?
Its solubility kinetic is > 66 µg/mL.

With `O=C(Cn1c(=O)sc2ccccc21)Nc1ccc(O)cc1` as the molecule, how does the solubility kinetic read?
The solubility kinetic was > 45 µg/mL.

For `O=C(Nc1ccc(Cl)cn1)c1cc2c(s1)-c1ccccc1OC2`, which solubility kinetic is on record?
The solubility kinetic was < 0.4 µg/mL.

Which solubility kinetic does the source give for `CN(Cc1ccccc1)C(=O)COc1ccccc1Cl` here?
Its solubility kinetic is 40 µg/mL (≈ 138 µM).

Which solubility kinetic does the source give for `COc1cc(C(=O)O/N=C(\N)c2cccc([N+](=O)[O-])c2)cc(OC)c1OC` here?
Its solubility kinetic is 0.3 µg/mL (≈ 0.799 µM).

For `Cc1nnc(SCc2cc(=O)[nH]c(=S)[nH]2)s1`, which solubility kinetic is on record?
Its solubility kinetic is > 40.9 µg/mL.

Which solubility kinetic does the source give for `O=C(NCC(c1ccco1)N1CCOCC1)c1ccccc1` (stereo not drawn) here?
The solubility kinetic was > 45.1 µg/mL.
